Results from patent US20070004660A1, “Synergistic Modulation of Flt3 Kinase Using Alkylquinolines and Alkylquinazolines” (priority 2005, published 2007).

target: T1, wild-type FLT3 receptor (Homo sapiens, UniProt P36888); test: Cell-based FLT3 receptor ELISA (FLT ligand-induced phosphorylation in Baf3 FLT3 cells); conditions: 100 ng/mL Flt ligand, uncertainty ±20%
T1 construct: host or cells: Baf3 (murine B cell lymphoma line), stably transfected
T1 sequence (P36888 27-993): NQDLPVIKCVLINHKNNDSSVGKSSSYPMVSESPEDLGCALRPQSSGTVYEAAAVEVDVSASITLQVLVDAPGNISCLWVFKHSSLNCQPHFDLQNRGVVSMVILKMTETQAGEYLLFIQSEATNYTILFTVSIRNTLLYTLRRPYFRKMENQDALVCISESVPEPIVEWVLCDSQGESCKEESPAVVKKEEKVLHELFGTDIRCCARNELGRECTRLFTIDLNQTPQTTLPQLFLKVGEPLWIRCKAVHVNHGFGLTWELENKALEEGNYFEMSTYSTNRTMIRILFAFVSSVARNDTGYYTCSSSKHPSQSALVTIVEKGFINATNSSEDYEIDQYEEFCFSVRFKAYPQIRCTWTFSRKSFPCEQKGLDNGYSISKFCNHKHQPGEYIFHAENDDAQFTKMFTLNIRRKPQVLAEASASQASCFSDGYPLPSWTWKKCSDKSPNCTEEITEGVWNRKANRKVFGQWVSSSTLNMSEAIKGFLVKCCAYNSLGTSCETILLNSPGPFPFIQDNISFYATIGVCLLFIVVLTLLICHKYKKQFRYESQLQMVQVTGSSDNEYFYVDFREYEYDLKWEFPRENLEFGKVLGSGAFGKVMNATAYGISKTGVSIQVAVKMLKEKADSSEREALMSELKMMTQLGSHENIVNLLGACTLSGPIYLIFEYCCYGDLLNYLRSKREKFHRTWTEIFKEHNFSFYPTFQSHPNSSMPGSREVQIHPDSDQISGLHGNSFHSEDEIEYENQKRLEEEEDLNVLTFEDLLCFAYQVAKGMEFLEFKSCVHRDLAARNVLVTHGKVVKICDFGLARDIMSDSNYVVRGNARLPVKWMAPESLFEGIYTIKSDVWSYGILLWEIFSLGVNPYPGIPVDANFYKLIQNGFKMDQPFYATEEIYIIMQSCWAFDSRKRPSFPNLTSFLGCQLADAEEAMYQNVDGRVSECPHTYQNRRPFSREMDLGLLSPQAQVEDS
Protocol: Specific cellular inhibition of FLT ligand-induced wild-type FLT3 phosphorylation was measured in the following manner: Baf3 FLT3 cells overexpressing the FLT3 receptor were obtained from Dr. Michael Heinrich (Oregon Health and Sciences University). The Baf3 FLT3 cell lines were created by stable transfection of parental Baf3 cells (a murine B cell lymphoma line dependent on the cytokine IL-3 for growth) with wild-type FLT3. Cells were selected for their ability to grow in the absence of IL-3 and in the presence of FLT3 ligand. Baf3 cells were maintained in RPMI 1640 with 10% FBS, penn/strep and 10 ng/ml FLT ligand at 37° C., 5% CO2. To measure direct inhibition of the wild-type FLT3 receptor activity and phosphorylation a sandwich ELISA method was developed similar to those developed for other RTKs (see Sadick, M D, Sliwkowski, M X, Nuijens, A, Bald, L, Chiang, N, Lofgren, J A, Wong W L T. Analysis of Heregulin-Induced ErbB2 Phosphorylation with a High-Throughput Kinase Receptor Activation Enzyme-Linked Immunsorbent Assay, Analytical Biochemistry. 1996; 235:207-214 and Baumann C A, Zeng L, Donatelli R R, Maroney A C. Development of a quantitative, high-throughput cell-based enzyme-linked immunosorbent assay for detection of colony-stimulating factor-1 receptor tyrosine kinase inhibitors. J Biochem Biophys Methods. 2004; 60:69-79.). 200 μL of Baf3FLT3 cells (1×10^6 /mL) were plated in 96 well dishes in RPMI 1640 with 0.5% serum and 0.01 ng/mL IL-3 for 16 hours prior to 1 hour compound or DMSO vehicle incubation. Cells were treated with 100 ng/mL Flt ligand (R&D Systems Cat# 308-FK) for 10 min. at 37° C. Cells were pelleted, washed and lysed in 100 ul lysis buffer (50 mM Hepes, 150 mM NaCl, 10% Glycerol, 1% Triton-X-100, 10 mM NaF, 1 mM EDTA, 1.5 mM MgCl2, 10 mM NaPyrophosphate) supplemented with phosphatase (Sigma Cat# P2850) and protease inhibitors (Sigma Cat #P8340). Lysates were cleared by centrifugation at 1000×g for 5 minutes at 4° C. Cell lysates were transferred to white wall 96 well microtiter (Costar #9018) plates coated with 50 ng/well anti-FLT3 antibody (Santa Cruz Cat# sc-480) and blocked with SeaBlock reagent (Pierce Cat#37527). Lysates were incubated at 4° C. for 2 hours. Plates were washed 3× with 200 ul/well PBS/0.1% Triton-X-100. Plates were then incubated with 1:8000 dilution of HRP-conjugated anti-phosphotyrosine antibody (Clone 4G10, Upstate Biotechnology Cat#16-105) for 1 hour at room temperature. Plates were washed 3× with 200 ul/well PBS/0.1% Triton-X-100. Signal detection with Super Signal Pico reagent (Pierce Cat#37070) was done according to manufacturer's instruction with a Berthold microplate luminometer. All data points are an average of triplicate samples. […] Inhibition and IC50 data analysis was done with GraphPad Prism using a non-linear regression fit with a multiparamater, sigmoidal dose-response (variable slope) equation.

IC50 [µM] | Structure (SMILES)
0.005 | COc1cc2ncnc(C3CCN(C(=O)Nc4ccc(C(C)(C)C)cc4)CC3)c2cc1OC [Example 53, 4-(6,7-Dimethoxy-quinazolin-4-yl)-piperidine-1-carboxylic acid (4-tert-butyl-phenyl)-amide]
0.03 | CS(=O)(=O)NCCCOc1ccc2c(C3CCN(C(=O)Nc4ccc(OC5CCCC5)nc4)CC3)ncnc2c1 [Example 88, 4-[7-(3-Methanesulfonylamino-propoxy)-quinazolin-4-yl]-piperidine-1-carboxylic acid (6-cyclopentyloxy-pyridin-3-yl)-amide]
0.009 | CCN1CCN(CCCOc2ccc3c(C4CCN(C(=O)Nc5ccc(N6CCOCC6)cc5)CC4)ncnc3c2)CC1 [Example 115, 4-{7-[3-(4-Ethyl-piperazin-1-yl)-propoxy]-quinazolin-4-yl}-piperidine-1-carboxylic acid (4-morpholin-4-yl-phenyl)-amide]
0.053 | CN1CCC(COc2ccc3c(C4CCN(C(=O)Nc5ccc(N6CCOCC6)nc5)CC4)ncnc3c2)CC1 [Example 108, 4-[7-(1-Methyl-piperidin-4-ylmethoxy)-quinazolin-4-yl]-piperidine-1-carboxylic acid (6-morpholin-4-yl-pyridin-3-yl)-amide]
0.009 | CS(=O)(=O)NCCCOc1ccc2c(C3CCN(C(=O)Nc4ccc(N5CCCC5)nc4)CC3)ncnc2c1 [Example 86, 4-[7-(3-Methanesulfonylamino-propoxy)-quinazolin-4-yl]-piperidine-1-carboxylic acid (6-pyrrolidin-1-yl-pyridin-3-yl)-amide]
0.025 | O=C(Nc1ccc(N2CCOCC2)cc1)N1CCC(c2ncnc3cc(OCCCN4CCN(CCO)CC4)ccc23)CC1 [Example 116, 4-(7-{3-[4-(2-Hydroxy-ethyl)-piperazin-1-yl]-propoxy}-quinazolin-4-yl)-piperidine-1-carboxylic acid (4-morpholin-4-yl-phenyl)-amide]
0.117 | CC(C)Oc1ccc(NC(=O)N2CCC(c3ncnc4cc(OCCCOS(C)(=O)=O)ccc34)CC2)cc1 [Example 121, Methanesulfonic acid 3-{4-[1-(4-isopropoxy-phenylcarbamoyl)-piperidin-4-yl]-quinazolin-7-yloxy}-propyl ester]
0.075 | O=C1CCCN1CCOc1ccc2c(C3CCN(C(=O)Nc4ccc(N5CCOCC5)cc4)CC3)ncnc2c1 [Example 85, 4-{7-[2-(2-Oxo-pyrrolidin-1-yl)-ethoxy]-quinazolin-4-yl}-piperidine-1-carboxylic acid (4-morpholin-4-yl-phenyl)-amide]
0.008 | CC(C)Oc1ccc(NC(=O)N2CCC(c3ncnc4cc(N(C)C)ccc34)CC2)cc1 [Example 100, 4-(7-Dimethylamino-quinazolin-4-yl)-piperidine-1-carboxylic acid (4-isopropoxy-phenyl)-amide]
0.012 | O=C(Nc1ccc(N2CCCC2)nc1)N1CCC(c2ncnc3cc(OCCN4CCOC4=O)ccc23)CC1 [Example 92, 4-{7-[2-(2-Oxo-oxazolidin-3-yl)-ethoxy]-quinazolin-4-yl}-piperidine-1-carboxylic acid (6-pyrrolidin-1-yl-pyridin-3-yl)-amide]
0.005 | CC(C)Oc1ccc(NC(=O)N2CCC(c3ncnc4cc(NCCCN5CCN(C)CC5)ccc34)CC2)cc1 [Example 102, 4-{7-[3-(4-Methyl-piperazin-1-yl)-propylamino]-quinazolin-4-yl}-piperidine-1-carboxylic acid (4-isopropoxy-phenyl)-amide]
0.186 | CC(C)Oc1ccc(NC(=O)N2CCC(c3ncnc4ccc(C#CCN5CCCCC5)cc34)CC2)cc1 [Example 14, 4-[6-(3-Piperidin-1-yl-prop-1-ynyl)-quinazolin-4-yl]-piperidine-1-carboxylic acid (4-isopropoxy-phenyl)-amide]
0.762 | COc1cc2ncnc(C3CCN(C(=O)Nc4ccc(C5CCN(C(=O)OC(C)(C)C)CC5)cc4)CC3)c2cc1OC [Example 63, 4-(4-{[4-(6,7-Dimethoxy-quinazolin-4-yl)-piperidine-1-carbonyl]-amino}-phenyl)-piperidine-1-carboxylic acid tert-butyl ester]
0.851 | CC(C)Oc1ccc(NC(=O)N2CCC(c3ncnc4ccccc34)CC2)cc1 [Example 8, 4-Quinazolin-4-yl-piperidine-1-carboxylic acid (4-isopropoxy-phenyl)-amide]
0.098 | O=C(Nc1ccc(N2CCOCC2)cc1)N1CCC(c2ncnc3cc(OCCCO)ccc23)CC1 [Example 77, 4-[7-(3-Hydroxy-propoxy)-quinazolin-4-yl]-piperidine-1-carboxylic acid (4-morpholin-4-yl-phenyl)-amide]
0.265 | COc1cc2ncnc(C3CCN(C(=O)Nc4ccc(-c5cncnc5)cc4)CC3)c2cc1OC [Example 58, 4-(6,7-Dimethoxy-quinazolin-4-yl)-piperidine-1-carboxylic acid (4-pyrimidin-5-yl-phenyl)-amide]
0.08 | O=C1CCCN1CCOc1ccc2c(C3CCN(C(=O)Nc4cnc(N5CCCC5)nc4)CC3)ncnc2c1 [Example 84, 4-{7-[2-(2-Oxo-pyrrolidin-1-yl)-ethoxy]-quinazolin-4-yl}-piperidine-1-carboxylic acid (2-pyrrolidin-1-yl-pyrimidin-5-yl)-amide]
0.001 | O=C1CCCN1CCCOc1ccc2c(C3CCN(C(=O)Nc4ccc(N5CCCC5)nc4)CC3)ncnc2c1 [Example 89, 4-{7-[3-(2-Oxo-pyrrolidin-1-yl)-propoxy]-quinazolin-4-yl}-piperidine-1-carboxylic acid (6-pyrrolidin-1-yl-pyridin-3-yl)-amide]
0.046 | COc1cc2ncnc(C3CCN(C(=O)Nc4ccc(-c5ccc(Cl)nc5)cc4)CC3)c2cc1OC [Example 60, 4-(6,7-Dimethoxy-quinazolin-4-yl)-piperidine-1-carboxylic acid [4-(6-chloro-pyridin-3-yl)-phenyl]-amide]
0.006 | O=C(Nc1ccc(N2CCOCC2)nc1)N1CCC(c2ncnc3cc(OCCN4CCOC4=O)ccc23)CC1 [Example 91, 4-{7-[2-(2-Oxo-oxazolidin-3-yl)-ethoxy]-quinazolin-4-yl}-piperidine-1-carboxylic acid (6-morpholin-4-yl-pyridin-3-yl)-amide]
0.163 | CCOc1ccc(NC(=O)N2CCC(c3ncnc4cc(OC)c(OC)cc34)CC2)cc1 [Example 44, 4-(6,7-Dimethoxy-quinazolin-4-yl)-piperidine-1-carboxylic acid (4-ethoxy-phenyl)-amide]
